Legend:
[1] = molecular target: T1, wild type transthyretin (WT-TTR) (Homo sapiens, UniProt P02766); assay: WT-TTR amyloid fibril formation assay (turbidimetry, acid-induced); format: biochemical; conditions: pH 4.4, 72 hours; for Fibril Formation (%): WT-TTR 3.6 μM, 1:1 TTR-compound stoichiometry, 37° C., normalized to no-compound control (100%); for IC50: WT-TTR fixed at 3.6 μM, ten compound concentrations
T1 construct: made in house; host or cells: E. coli BL21 (DE3), pET23a plasmid
Method: (§1) The first set of evaluations is based on a fast, stagnant fibril formation assay that is used for the early screening of compounds, be they virtual screening hits or newly synthesized analogues. In this assay, a solution of the compound under test at 1.8, 3.6 or 7.2 μM is added to a solution of TTR at 3.6 μM, so that there is enough compound to bind to either one or both of TTR's binding sites. The pH of the resulting solution is then lowered to 4.4 to promote amyloidogenesis. The process of amyloid fibril formation over time is assessed by turbidimetry measurements at three different wavelengths (405, 450 and 490 nm, or at 550, 600 and 650 nm when the compound absorbs light at the previous wavelengths), using a spectrophotometer endowed with a BioTek microplate reader. The extent of fibril formation of each mixture is determined by normalizing a sample with the protein (TTR), in absence of compounds, which, at the end of 72 hours, represents 100% of amyloid fibril formation. In each experiment, each compound concentration is tested in triplicate. For each compound concentration and incubation time, the arithmetic mean of the triplicate experiments is calculated, as well as the arithmetic mean of the three measured wavelengths. High activity can be defined as a percentage of fibril formation below 10% at compound concentration 7.2 μM (TTR:compound stoichiometry 1:2) and below 40% at 3.6 μM (TTR:compound stoichiometry 1:1).
The in vitro activity of the compounds was assessed through a biochemical assay based on turbidimetry measurements, in which fibril formation is induced by acidification of the solution to pH 4.4 after incubation with the hit compound to be tested. The amount of amyloid fibrils formed is then monitored throughout 72 hours. Further details on this assay are provided in the “Evaluation of amyloid inhibition in vitro” subsection in “Materials and Methods”.
Experimental evaluation of the in vitro activity of virtual screening hits against amyloid fibril formation by TTR was carried out using a biochemical assay based on turbidimetry measurements. In this assay, fibril formation is induced by acidification of the solution to pH 4.4 after incubation with the hit compound to be tested. The amount of amyloid fibrils formed is monitored over 72 hours. Further details on the assay are provided in the “Evaluation of amyloid inhibition in vitro” subsection below.
(§2) Purchased virtual screening hits and all synthesized (optimization) derivatives were dissolved in DMSO to a final concentration of 10.8 mM to provide a primary stock solution. Several secondary stock solutions were prepared in DMSO by dilution of the primary stock solution and the concentrations were chosen depending on the effectiveness of the compound in inhibiting the TTR amyloid fibril formation.
(§3) The fibril formation assay was adapted to run in a high-throughput screening mode. For this purpose, 96-well microplates were used with a final assay volume of 100 μL.
(§4) One microLitre (μL) of different compound secondary stock solutions was added to 50 μL of a 7.2 μM wild type TTR (WT-TTR) or Val122Ile-TTR (V122I-TTR) solutions in 10 miliMolar (mM) sodium phosphate buffer, 100 mM KCl and 1 mM EDTA, pH 7.2, previously dialyzed against the same buffer solution. After 30 minutes of incubation at room temperature, the pH of the mixture was lowered to 4.4 with 49 μL of 200 mM acetate buffer, 100 mM KCl and 1 mM EDTA, pH 4.3.
(§5) The mixtures were incubated at 37° C. during 72 hours. Turbidity at 405 nm, 450 nm and 490 nm (or at 550, 600 and 650 nm when the test compound absorbs light at the previous wavelengths) was measured over time (0, 17, 24, 41, 48, 65 and 72 hours) using a BioTek Microplate Spectrophotometer to evaluate the extent of fibril formation. Immediately before the turbidity measurements, the mixtures were gently shacked during 1 minute to homogenize well and not damage the formed amyloid aggregates and fibrils.

[2] = molecular target: Val122Ile transthyretin (V122I-TTR) (Homo sapiens, UniProt P02766, V142I); assay: V122I-TTR amyloid fibril formation assay (turbidimetry, acid-induced); format: biochemical; conditions: pH 4.4, 72 hours; for Fibril Formation (%): V122I-TTR 3.6 μM, 37° C.; for IC50: V122I-TTR fixed at 3.6 μM, ten compound concentrations
Method: as §1, §2, §3, §4
as §5, with “fibrils. The final turbidity was calculated as an average of the three wavelengths measured.” for “fibrils.”
In addition, control samples containing TTR with no inhibitor and 1% DMSO, as well as inhibitor in absence of TTR were tested and analyzed.
The extent of amyloid fibril formation data was normalized to TTR in the absence of inhibitor, assigned to be 100% fibril formation (or 0% amyloid inhibition) at the end of the experiment.
The extent of amyloid fibril formation throughout 72 hours was determined as described in the “Evaluation of amyloid inhibition in vitro” subsection above.
IC50 values were calculated from the inhibition curves obtained by fitting the values by a nonlinear curve method using the OriginPro7 (OriginLab Corporation, USA).

[3] = HepG2 cell viability, resazurin reduction assay; format: cell-based; conditions: human, HepG2 hepatoma cells, approximately 72 hours incubation, read-out: inhibitory dose (ID50), cell viability
From the text: Cell viability of HepG2 hepatoma cells was quantified in order to assess the toxicity of the compounds at increasing concentrations. The used assay is described in detail in the “Experimental Evaluation of Cytotoxicity of Compounds using Cell-based Assays” section in “Materials and Methods”. This is a relevant assessment not just to discard potential concerns of liver damage (which is a problem reported for many drugs) but also because of the long-term nature of the treatments that patients suffering from TTR-mediated amyloidoses need to undertake.
Adherent human hepatoma cells HepG2 were cultured in DMEM (Dulbecco's Modified Eagle's Medium) with 10% fetal bovine serum (FBS), 100 U/mL penicillin, […] streptomycin, and 1 mM sodium pyruvate. The cells were grown in 75 cm^2 culture flasks at 37° C., in an atmosphere of 5% CO2, and subcultured twice a week using a trypsin-EDTA solution.
Upon 3 to 4 days of growth and reaching approximately 90% confluence, HepG2 cells were plated in 96-well microplates with cell density of 12×10^3 cells/well and in a volume of 100 μL per well.
The compounds are dissolved in DMSO and subsequently diluted in DMEM (in 9 intermediate […] concentrations). After adhesion of HepG2 cells to the microplates, […] 100 μL of each solution of intermediate compound concentration were added to each well (in quadruplicate). Positive controls were done with 10 wells containing only cells; solvent controls resulted from the analysis of the three highest DMSO concentrations tested and were carried out in triplicate.
After addition of the compounds to the cells, the microplates were incubated for approximately 72 hours at 37° C. in an atmosphere of 5% CO2 until the cell viability assay was performed.
The cell viability of HepG2 cells in the presence of test compounds was assessed by the resazurin reduction assay. Resazurin is a redox indicator that is converted into resorufin through reduction reactions of metabolically active cells. In the oxidized form it presents a purplish blue color, while the reduced form presents a purple-pink color.
A stock solution of 0.01% resazurin in PBS is diluted 1:10 in incomplete RPMI 1640 cell medium (without addition of antibiotics and FBS). After washing the cells with 200 μL PBS containing Ca^2+ and Mg^2+, 200 μL of resazurin 0.001% are added to the wells. Control runs with incomplete RPMI 1640 medium only and (without cells) are done in triplicate. […]
To quantify the reduction of resazurin to resorufin, microplate absorbance readings were taken at two wavelengths, 540 nm (reduced form) and 630 nm (oxidized form), in a Biotek spectrophotometer microplate reader. The percentage of viable cells at each compound concentration is determined using the formula: […]

O=C(O)CN1C(=O)/C(=C/c2cc(Cl)cc(Cl)c2)SC1=S [AT50-A05, (Z)-3-hydroxycarbonylmethyl-5-(3′,5′-dichlorophenylmethylidene)-2-thioxothiazolidin-4-one]
Fibril Formation (%) [1]: 17% | IC50 [1]: 1620 ± 130 nM | Fibril Formation (%) [2]: 28% | IC50 [2]: 2320 nM | melting point: 272 to 273 °C

O=C(O)CN1C(=O)/C(=C/c2cc(F)c(O)c(F)c2)SC1=S [AT50-A06, (Z)-3-hydroxycarbonylmethyl-5-(3′,5′-difluoro-4′-hydroxyphenylmethylidene)-2-thioxothiazolidin-4-one]
Fibril Formation (%) [1]: 28% | IC50 [1]: 1810 ± 400 nM | IC50 at 72 h [3]: > 400000 nM | melting point: 221 to 222 °C

O=C(O)CN1C(=O)/C(=C/c2cc(F)cc(F)c2)SC1=S [AT50-A12, (Z)-3-hydroxycarbonylmethyl-5-(3′,5′-difluorophenylmethylidene)-2-thioxothiazolidin-4-one]
Fibril Formation (%) [1]: 44% | IC50 [1]: 2880 ± 240 nM | Fibril Formation (%) [2]: 91% | IC50 [2]: 7800 nM | melting point: 225 to 227 °C

Cc1cc(/C=C2\SC(=S)N(CC(=O)O)C2=O)cc(C)c1O [AT50-A17, (Z)-3-hydroxycarbonylmethyl-5-(4′-hydroxy-3′,5′-dimethylphenylmethylidene)-2-thioxothiazolidin-4-one]
Fibril Formation (%) [1]: 27% | IC50 [1]: 2370 ± 470 nM | Fibril Formation (%) [2]: 51% | IC50 [2]: 3160 nM | melting point: 261 to 263 °C

O=C(O)CCCN1C(=O)/C(=C/c2cc(F)c(O)c(F)c2)SC1=S [AT50-C09, (Z)-5-(3′,5′-difluoro-4′-hydroxyphenylmethylidene)-3-(3′-hydroxycarbonylpropyl)-2-thioxothiazolidin-4-one]
Fibril Formation (%) [1]: 33% | IC50 [1]: 2450 ± 350 nM | Fibril Formation (%) [2]: 48% | IC50 [2]: 3190 nM | melting point: 207 to 209 °C

O=C(O)CCCN1C(=O)/C(=C/c2cc(Cl)c(O)c(Cl)c2)SC1=S [AT50-C10, (Z)-5-(3′,5′-dichloro-4′-hydroxyphenylmethylidene)-3-(3′-hydroxycarbonylpropyl)-2-thioxothiazolidin-4-one]
Fibril Formation (%) [1]: 27% | IC50 [1]: 1870 ± 160 nM | Fibril Formation (%) [2]: 37% | IC50 [2]: 2460 nM | melting point: 247 to 249 °C

Cc1cc(/C=C2\SC(=S)N(CCCC(=O)O)C2=O)cc(C)c1O [AT50-C11, (Z)-5-(4′-hydroxy-3′,5′-dimethylphenylmethylidene)-3-(3′-hydroxycarbonylpropyl)-2-thioxothiazolidin-4-one]
Fibril Formation (%) [1]: 26% | IC50 [1]: 2430 ± 1250 nM | Fibril Formation (%) [2]: 66% | IC50 [2]: 4520 nM | melting point: 250 to 252 °C

O=C(O)CCN1C(=O)/C(=C/c2cc(F)c(O)c(F)c2)SC1=S [AT50-C13, (Z)-5-(3′,5′-difluoro-4′-hydroxyphenylmethylidene)-3-(2′-hydroxycarbonylethyl)-2-thioxothiazolidin-4-one]
Fibril Formation (%) [1]: 32% | IC50 [1]: 2310 ± 450 nM | Fibril Formation (%) [2]: 36% | IC50 [2]: 2600 nM | melting point: 216 to 217 °C

O=C(O)CCN1C(=O)/C(=C/c2cc(Cl)cc(Cl)c2)SC1=S [AT50-C14, (Z)-3-(2′-hydroxycarbonylethyl)-5-(3′,5′-dichlorophenylmethylidene)-2-thioxothiazolidin-4-one]
Fibril Formation (%) [1]: 26% | IC50 [1]: 1950 ± 260 nM | Fibril Formation (%) [2]: 55% | IC50 [2]: 4370 nM | melting point: 245 to 247 °C

O=C(O)CCN1C(=O)/C(=C/c2cc(Cl)c(O)c(Cl)c2)SC1=S [AT50-C15, (Z)-3-(2′-hydroxycarbonylethyl)-5-(3′,5′-dichloro-4′-hydroxyphenylmethylidene)-2-thioxothiazolidin-4-one]
inhibitory activity against TTR amyloid fibril formation compared with reference compounds (in words) ([1]; TTR 3.6 μM): superior to that of 2OH-PCB80 | Fibril Formation (%) [1]: 7% | IC50 [1]: 1030 ± 100 nM | Fibril Formation (%) [2]: 17% | IC50 [2]: 1620 nM | melting point: 259 to 260 °C

Cc1cc(/C=C2\SC(=S)N(CCC(=O)O)C2=O)cc(C)c1O [AT50-C16, (Z)-3-(2′-hydroxycarbonylethyl)-5-(4′-hydroxy-3′,5′-dimethylphenylmethylidene)-2-thioxothiazolidin-4-one]
Fibril Formation (%) [1]: 24% | IC50 [1]: 2290 ± 130 nM | Fibril Formation (%) [2]: 41% | IC50 [2]: 2710 nM | melting point: 253 to 254 °C

Reference: US11584727B2, “2-thioxothiazolidin-4-one derivatives active as transthyretin ligands and uses thereof” (BSIM Therapeutics, S.A., priority 2014, dated 2023)
